From ChEMBL document CHEMBL5380812, “Structural Dynamics-Driven Discovery of Anticancer and Antimetastatic Effects of Diltiazem and Glibenclamide Targeting Urokinase Receptor” (J Med Chem, 2023)
Calls of active or inactive are those of the source. No cut-off for these calls is given here.

Key:
[1] = system: Urokinase plasminogen activator surface receptor (Homo sapiens), Q03405 [UNDEFINED MUTATION]; settings: dose 100.0 µM
Description: Binding affinity to uPAR H47C/N259C (unknown origin) mutant assessed as response unit at 100 uM by surface plasmon resonance (SPR) analysis relative to control

[2] = target: Urokinase plasminogen activator surface receptor (Homo sapiens, UniProt Q03405, H47C/N259C); experiment: Binding affinity to uPAR H47C/N259C (unknown origin) mutant assessed as equilibrium dissociation constant by surface plasmon resonance (SPR) analysis relative to control
MCF7 [3] = experiment: Antiinvasive activity against empty vector transfected human MCF7 cells assessed as suppression of invasive property at upto 100 uM incubated for 24 hrs by Crystal violet staining based - Transwell assay; format: functional, cell-based
[4] = Toxicity in Balb/c mouse homografted with mouse CT26 cells assessed as body weight at 100 mg/kg, po every two days for 14 days; format: organism-based; settings: in vivo, 336 h, time 14 day
CT26 [5] = experiment: Antiinvasive activity against mouse CT26 cells assessed as suppression of invasive property incubated for 24 hrs by Crystal violet staining based - Transwell assay; format: functional, cell-based; settings: dose 0-100 µM
Caco-2 = experiment: Antiinvasive activity against uPAR-negative human Caco-2 cells assessed as inhibition of invasive property at upto 100 uM incubated for 24 hrs by Crystal violet staining based - Transwell assay; format: functional, cell-based
CT26 [6] = experiment: In vivo antitumor activity against mouse CT26 cells subcutaneously homografted in Balb/c mouse model assessed as suppression of tumor growth at 100 mg/kg, po every two days for 14 days; format: functional, organism-based; settings: time 14.0 day
MDA-MB-231 = experiment: Antiinvasive activity against human MDA-MB-231 cells expressing moderate uPAR assessed as inhibition of invasive property at upto 100 uM incubated for 24 hrs by Crystal violet staining based - Transwell assay; format: functional, cell-based
PC-3 [7] = experiment: Antiinvasive activity against human PC-3 cells expressing high uPAR assessed as inhibition of invasive property incubated for 24 hrs by Crystal violet staining based - Transwell assay; format: functional, cell-based; settings: dose 0-100 µM
CT26 [8] = experiment: In vivo antimetastatic activity against mouse CT26-muPAR-mCherry cells intravenously homografted in Balb/c mouse lung metastatic model assessed as suppression of mCherry fluorescence in lung at 30 mg/kg, po every two days for 15 days relative to control; format: functional; settings: time 15 day
MCF7 [9] = experiment: Antiinvasive activity against short hairpin RNA sequence of uPA containing vector transfected human MCF7-shuPA cells assessed as suppression of invasive property at upto 100 uM incubated for 24 hrs by Crystal violet staining based - Transwell assay; format: functional, cell-based
[10] = Toxicity in Balb/c mouse homografted with mouse CT-26-muPAR-mCherry cells assessed as vascular hyperemia at 100 mg/kg, po every two days for 15 days; format: organism-based; settings: in vivo, 360 h, time 15 day
PC-3 [11] = experiment: Cytotoxicity against human PC-3 cells assessed as survival rate without matrigel at upto 100 uM; format: toxicity, cell-based; settings: pc-3, 100 µM
HUVEC = experiment: Antiangiogenic activity against HUVEC cells assessed as inhibition of formation of capillary-like polygons/fork-like branches in serum free medium at 100 uM; format: functional, cell-based; settings: Homo sapiens
CT26 [12] = experiment: In vivo antimetastatic activity against mouse CT26-muPAR-mCherry cells intravenously homografted in Balb/c mouse lung metastatic model assessed as suppression of mCherry fluorescence in lung at 100 mg/kg, po every two days for 15 days relative to control; format: functional; settings: time 15 day
[13] = Toxicity in Balb/c mouse homografted with mouse CT-26-muPAR-mCherry cells assessed as adverse effect at 100 mg/kg, po every two days for 15 days; format: organism-based; settings: in vivo, 360 h, time 15 day
PC-3 [14] = experiment: Antiinvasive activity against human PC-3 cells expressing high uPAR assessed as inhibition of invasive property without matrigel at upto 100 uM incubated for 24 hrs by crystal violet staining based - Transwell assay; format: functional, cell-based
CT26 [15] = experiment: In vivo antimetastatic activity against mouse CT-26-muPAR-mCherry cells intravenously homografted in Balb/c mouse lung metastatic model assessed as suppression of hyperplasia-induced lung weight increase at 30 to 100 mg/kg, po every two days for 15 days; format: functional, organism-based; settings: dose 30-100 mg/kg, time 15.0 day
CT26 [16] = experiment: In vivo antimetastatic activity against mouse CT-26-muPAR-mCherry cells intravenously homografted in Balb/c mouse lung metastatic model assessed as suppression of metastases of cancer cells around vessels at 100 mg/kg, po every two days for 15 days by histopathological analysis; format: functional, organism-based; settings: time 15.0 day
PC-3 [17] = experiment: Inhibition of cell migration in human PC-3 cells assessed as wound healing measured upto 100 uM; format: cell-based
CT26 [18] = experiment: In vivo antimetastatic activity against mouse CT-26-muPAR-mCherry cells intravenously homografted in Balb/c mouse lung metastatic model assessed as suppression of hyperplastic nodules on the pleural surface in lung at 30 to 100 mg/kg, po every two days for 15 days; format: functional, organism-based; settings: dose 30-100 mg/kg, time 15.0 day
HEK-293T = experiment: Antimetastatic activity against uPAR-overexpressing HEK293T cells assessed as suppression of invasive property incubated for 24 hrs by Crystal violet staining based - Transwell assay; format: functional, cell-based; settings: Homo sapiens, dose 0-100 µM
CT26 [19] = experiment: Antiinvasive activity against mouse CT26-muPAR-mCherry cells assessed as suppression of invasive property incubated for 24 hrs by Crystal violet staining based - Transwell assay; format: functional, cell-based; settings: dose 0-100 µM
CT26 [20] = experiment: In vivo antitumor activity against mouse CT26 cells subcutaneously homografted in Balb/c mouse model assessed as tumor weight at 100 mg/kg, po every two days for 14 days relative to control; format: functional; settings: CT26, 336 h, time 14 day
[21] = Inhibition of human recombinant […]/uPAR (unknown origin) interaction measured after 2 hrs by ELISA
CT26 [22] = experiment: In vivo antimetastatic activity against mouse CT26-muPAR-mCherry cells intravenously homografted in Balb/c mouse lung metastatic model assessed as suppression of mCherry fluorescence in lung at 300 mg/kg, po every two days for 15 days relative to control; format: functional; settings: time 15 day
CT26 [23] = experiment: In vivo antimetastatic activity against mouse CT-26-muPAR-mCherry cells intravenously homografted in Balb/c mouse lung metastatic model assessed as suppression of hyperplastic nodules on the pleural surface in lung at 100 to 300 mg/kg, po every two days for 15 days; format: functional, organism-based; settings: dose 100-300 mg/kg, time 15.0 day
CT26 [24] = experiment: In vivo antitumor activity against mouse CT26 cells subcutaneously homografted in Balb/c mouse model assessed as suppression of tumor growth at 300 mg/kg, po every two days for 14 days; format: functional, organism-based; settings: time 14.0 day
[25] = Toxicity in Balb/c mouse homografted with mouse CT-26-muPAR-mCherry cells assessed as adverse effect at 300 mg/kg, po every two days for 15 days; format: organism-based; settings: in vivo, 360 h, time 15 day
[26] = Toxicity in Balb/c mouse homografted with mouse CT26 cells assessed as body weight at 300 mg/kg, po every two days for 14 days; format: organism-based; settings: in vivo, 336 h, time 14 day
CT26 [27] = experiment: In vivo antimetastatic activity against mouse CT-26-muPAR-mCherry cells intravenously homografted in Balb/c mouse lung metastatic model assessed as suppression of hyperplasia-induced lung weight increase at 30 to 100 to 300 mg/kg, po every two days for 15 days; format: functional, organism-based; settings: dose 100-300 mg/kg, time 15.0 day
CT26 [28] = experiment: In vivo antitumor activity against CT26 cells subcutaneously homografted in Balb/c mouse model assessed as tumor weight at 300 mg/kg, po every two days for 14 days relative to control; format: functional; settings: CT26, 336 h, time 14 day
CT26 [29] = experiment: In vivo antimetastatic activity against mouse CT-26-muPAR-mCherry cells intravenously homografted in Balb/c mouse lung metastatic model assessed as suppression of metastases of cancer cells around vessels at 300 mg/kg, po every two days for 15 days by histopathological analysis; format: functional, organism-based; settings: time 15.0 day

Sequence of Urokinase plasminogen activator surface receptor (Q03405 23-305 H69C/N281C limits assumed): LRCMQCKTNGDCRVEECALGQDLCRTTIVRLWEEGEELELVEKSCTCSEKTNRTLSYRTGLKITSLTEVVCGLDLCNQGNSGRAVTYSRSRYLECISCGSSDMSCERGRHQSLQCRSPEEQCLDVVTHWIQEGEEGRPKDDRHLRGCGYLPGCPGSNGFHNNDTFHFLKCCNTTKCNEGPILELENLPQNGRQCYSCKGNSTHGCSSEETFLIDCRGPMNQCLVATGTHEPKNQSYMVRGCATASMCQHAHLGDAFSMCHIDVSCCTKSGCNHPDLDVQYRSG
Sequence of Urokinase plasminogen activator surface receptor (Homo sapiens), Q03405 [UNDEFINED MUTATION] (Q03405 whole entry, looked up, stated change not applied): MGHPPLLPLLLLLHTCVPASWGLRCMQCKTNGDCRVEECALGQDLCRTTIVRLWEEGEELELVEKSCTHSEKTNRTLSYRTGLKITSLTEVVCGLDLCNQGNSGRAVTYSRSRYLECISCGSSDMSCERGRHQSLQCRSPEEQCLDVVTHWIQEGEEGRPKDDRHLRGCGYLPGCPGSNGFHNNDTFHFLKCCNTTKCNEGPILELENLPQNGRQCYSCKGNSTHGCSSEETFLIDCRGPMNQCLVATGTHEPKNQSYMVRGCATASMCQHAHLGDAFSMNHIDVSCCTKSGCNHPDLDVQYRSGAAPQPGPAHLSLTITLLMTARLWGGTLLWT

## O=C(/C=C/c1ccc(O)c(O)c1)OCCc1ccccc1
[1]
  RU: 8

## CCN[C@H]1CN(CCCOC)S(=O)(=O)c2sc(S(N)(=O)=O)cc21
[1]
  RU: -1

## CNCC(O)c1ccc(O)cc1 (centres undefined)
[1]
  RU: 0.5

## CC(C)=CCOc1c2occc2cc2ccc(=O)oc12
[1]
  RU: 1

## CC(C)(C)c1ccc(C(=O)CCCN2CCC(OC(c3ccccc3)c3ccccc3)CC2)cc1
[1]
  RU: 1.5

## CNC(=C[N+](=O)[O-])NCCSCc1ccc(CN(C)C)o1
[1]
  RU: 0

## Cc1ccc(S(=O)(=O)N[C@@H](CCCCN)C(=O)CCl)cc1
[1]
  RU: 0

## CCCCC1C(=O)N(c2ccccc2)N(c2ccccc2)C1=O
[1]
  RU: 2.7

## COC(=O)[C@@H](N)CCCNC(=N)N[N+](=O)[O-]
[1]
  RU: 0

## O=C1CC2(CCCC2)CC(=O)N1CCCCN1CCN(c2ncccn2)CC1
[1]
  RU: 1

## O=C(O)CCc1nc(-c2ccccc2)c(-c2ccccc2)o1 [OXAPROZIN]
[2]
  Kd: 114 µM
[1]
  RU: 20

## O=C(CCCN1CCC(O)(c2ccc(Cl)cc2)CC1)c1ccc(F)cc1 [HALOPERIDOL]
[2]
  Kd: 41.2 µM
[1]
  RU: 10

## CN/C(=N\CCSCc1nc[nH]c1C)NC#N
[1]
  RU: -3

## COc1ccc(CN(CCN(C)C)c2ccccc2)cc1
[1]
  RU: 1.7

## COc1ccc([C@@H]2Sc3ccccc3N(CCN(C)C)C(=O)[C@@H]2OC(C)=O)cc1 [DILTIAZEM]
MCF7 [3]
  Activity: Active
[2]
  Kd: 39.2 µM
[4]
  Activity: Non-Toxic
CT26 [5]
  Activity: Dose-Dependent Effect
Caco-2
  Activity: inactive
CT26 [6]
  Activity: Active
MDA-MB-231
  Activity: Active
PC-3 [7]
  Activity: Dose-Dependent Effect
CT26 [8]
  Activity: 61%
[1]
  RU: 12
MCF7 [9]
  Activity: Active
[10]
  Activity: Toxic
PC-3 [11]
  Activity: Non-Toxic
HUVEC
  Activity: Active
CT26 [12]
  Activity: 76%
[13]
  Activity: Non-Toxic
PC-3 [14]
  Activity: Active
CT26 [15]
  Activity: Active
CT26 [16]
  Activity: Active
PC-3 [17]
  Activity: Active
CT26 [18]
  Activity: Active
HEK-293T
  Activity: Dose-Dependent Effect
CT26 [19]
  Activity: Dose-Dependent Effect
CT26 [20]
  inhibition in vivo at 100 mg/kg: 73.2%
[21]
  IC50: 58.6 µM

## CCOC(=O)Nc1ccc(NCc2ccc(F)cc2)nc1N
[1]
  RU: 15

## CCc1c(C)[nH]c2c1C(=O)C(CN1CCOCC1)CC2 (centres undefined)
[1]
  RU: 8

## COc1ccc(Cl)cc1C(=O)NCCc1ccc(S(=O)(=O)NC(=O)NC2CCCCC2)cc1 [GLYBURIDE]
CT26 [22]
  Activity: 83%
CT26 [23]
  Activity: Active
MCF7 [3]
  Activity: Active
[2]
  Kd: 40.4 µM
CT26 [5]
  Activity: Dose-Dependent Effect
Caco-2
  Activity: inactive
MDA-MB-231
  Activity: Active
PC-3 [7]
  Activity: Dose-Dependent Effect
[1]
  RU: 33
MCF7 [9]
  Activity: Active
PC-3 [11]
  Activity: Non-Toxic
HUVEC
  Activity: Active
CT26 [12]
  Activity: 70%
PC-3 [14]
  Activity: Active
CT26 [24]
  Activity: Active
[25]
  Activity: Non-Toxic
PC-3 [17]
  Activity: Active
HEK-293T
  Activity: Dose-Dependent Effect
CT26 [19]
  Activity: Dose-Dependent Effect
[26]
  Activity: Non-Toxic
CT26 [27]
  Activity: Active
CT26 [28]
  inhibition in vivo at 300 mg/kg: 62.8%
CT26 [29]
  Activity: Active
[21]
  IC50: 69.5 µM

## NC(CO)C(=O)NNCc1ccc(O)c(O)c1O (centres undefined)
[1]
  RU: 0

## CCN(CC)CCCC(C)Nc1c2ccc(Cl)cc2nc2ccc(OC)cc12 (centres undefined)
[1]
  RU: 20

## CN(C)CCC=C1c2ccccc2CCc2ccccc21
[1]
  RU: 11

## CC(=O)OCC(CCn1cnc2cnc(N)nc21)COC(C)=O
[1]
  RU: -4

## CCCCCOC(=O)Nc1nc(=O)n([C@@H]2O[C@@H](O)[C@@H](O)[C@H]2O)cc1F
[1]
  RU: 1

## CN(C)CCCC1(c2ccc(F)cc2)OCc2cc(C#N)ccc21 (centres undefined)
[1]
  RU: 7

## CCc1c(C)[nH]c2c1C(=O)CC(CN1CCOCC1)C2 (centres undefined)
[1]
  RU: 11

## CC(CCc1ccc(O)cc1)NCCc1ccc(O)c(O)c1 (centres undefined)
[1]
  RU: 5.5

## O=C(O)c1cccnc1Nc1cccc(C(F)(F)F)c1
[1]
  RU: 7

## CNCCCC12CCC(c3ccccc31)c1ccccc12 [MAPROTILINE]
[2]
  Kd: 79.7 µM
[1]
  RU: 13

## CCN(CC)CCOC(=O)c1ccc(N)cc1
[1]
  RU: 17
